Source: US8349835B2, “Aromatic ring fused triazine derivatives and uses thereof” (Shenyang Pharmaceutical University, priority 2008, dated 2013)

Key:
[1] = system: chorioallantoic membrane vessels; experiment: Activity test by chick chorioallantoic membrane method; format: in vivo; details: 5 uL medicine on cellulose membrane, chick embryo, 2 days
Protocol: After the shell membrane became wet, tore it open with ophthalmological tweezers so to expose the chorioallantoic membrane. • 6) Added 5 uL of selected medicine to a 0.5×0.5 cm cellulose membrane sterilized by high pressure, then set the membrane on the part of the chorioallantoic membrane with fewer vessels • 7) Closed the window, and put the embryos back into the hatch box to hatch for 2 days. • 8) Opened the transparent tape, and then opened the mixed cellulose membrane lightly with a tweezers. Measured the avascular area and took photographs.

[2] = system: Rat aortic ring; experiment: Rat Aortic Ring Assay; format: cell-based; details: observed on the sixth day
Outline: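 1 mm abdominal aortic rings from 6-week-old SD animals embedded in Matrigel, cultured in DMEM/10% FBS with compound at various concentrations (≥3 wells), medium and compound renewed day 3. Microvessel area imaged on day 6 (×100, 3 random rings); inhibition rate scored: ⋆<30-60%, ⋆⋆60-90%, ⋆⋆⋆>90%.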

[3] = target: VEGFR-2 (Homo sapiens, UniProt P35968); experiment: VEGFR-2 inhibition rate test (kinase assay kit, colorimetric ELISA); details: concentration not given
VEGFR-2, sequence (P35968 20-1356): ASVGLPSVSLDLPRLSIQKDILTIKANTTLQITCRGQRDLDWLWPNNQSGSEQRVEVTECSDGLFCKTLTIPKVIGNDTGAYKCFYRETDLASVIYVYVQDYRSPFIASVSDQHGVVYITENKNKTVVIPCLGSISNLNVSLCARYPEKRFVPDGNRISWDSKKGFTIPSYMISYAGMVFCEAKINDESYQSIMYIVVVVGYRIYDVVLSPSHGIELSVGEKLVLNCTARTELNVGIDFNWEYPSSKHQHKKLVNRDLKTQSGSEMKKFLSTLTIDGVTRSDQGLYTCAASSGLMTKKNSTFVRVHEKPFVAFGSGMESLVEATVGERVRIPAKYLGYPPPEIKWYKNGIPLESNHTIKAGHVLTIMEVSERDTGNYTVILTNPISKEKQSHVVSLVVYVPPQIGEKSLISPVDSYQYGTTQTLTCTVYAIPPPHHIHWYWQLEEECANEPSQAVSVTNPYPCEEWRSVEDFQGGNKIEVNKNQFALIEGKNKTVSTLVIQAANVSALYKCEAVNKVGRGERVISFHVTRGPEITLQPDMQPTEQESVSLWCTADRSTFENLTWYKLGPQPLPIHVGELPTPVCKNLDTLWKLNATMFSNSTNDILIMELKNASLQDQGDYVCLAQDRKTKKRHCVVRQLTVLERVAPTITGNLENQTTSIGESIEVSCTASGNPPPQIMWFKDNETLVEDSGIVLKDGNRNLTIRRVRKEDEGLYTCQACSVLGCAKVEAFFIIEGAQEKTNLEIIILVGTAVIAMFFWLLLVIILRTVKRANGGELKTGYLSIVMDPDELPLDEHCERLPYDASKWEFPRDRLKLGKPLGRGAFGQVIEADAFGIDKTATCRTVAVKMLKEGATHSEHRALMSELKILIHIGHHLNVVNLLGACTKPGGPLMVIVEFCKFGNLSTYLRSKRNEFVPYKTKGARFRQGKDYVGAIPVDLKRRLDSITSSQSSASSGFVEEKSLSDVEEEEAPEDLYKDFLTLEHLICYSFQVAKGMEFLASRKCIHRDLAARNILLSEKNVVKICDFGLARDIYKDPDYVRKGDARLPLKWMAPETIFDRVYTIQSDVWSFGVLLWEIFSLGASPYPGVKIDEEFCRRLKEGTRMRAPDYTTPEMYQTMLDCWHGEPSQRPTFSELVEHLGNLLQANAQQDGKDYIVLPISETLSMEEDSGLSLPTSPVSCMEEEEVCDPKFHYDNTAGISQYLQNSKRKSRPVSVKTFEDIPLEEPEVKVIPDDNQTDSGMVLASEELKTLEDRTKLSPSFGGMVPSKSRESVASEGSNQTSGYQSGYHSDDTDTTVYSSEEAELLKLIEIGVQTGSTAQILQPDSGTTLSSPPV

Row | Compound | The inhibitory effect on the growth of chorioallantoic membrane vessels [1] | Rat Aortic Ring Assay (10 ug/ml), result in words [2] | Kinase inhibition rate (VEGFR-2) [3]
1 | COc1cc2c(Nc3ccc(C(F)(F)F)cc3)nnnc2cc1OCCCCl [Example 68, 6-methoxy-7-chloropropoxy-4-(4-trifluoromethylanilino)-benzo[d][1,2,3]triazine] | Two samples exhibit inhibition at the zone covered by paper. | Vascular growth is significantly inhibited | 1.51
2 | COc1cc2c(Nc3ccccc3F)nnnc2cc1OCCCCl [Example 74, 6-methoxy-7-chloropropoxy-4-(2-fluoroanilino)-benzo[d][1,2,3]triazine] | The vessels become rare and are fractured at the zone covered by paper. | Vessel density was small, cells were elongated and cell | 0.26
3 | COc1cc2c(Nc3cccc(Br)c3)nnnc2cc1OCCCCl [Example 75, 6-methoxy-7-chloropropoxy-4-(3-bromoanilino)-benzo[d][1,2,3]triazine] | Smaller inhibition ring appears at the zone covered by paper. | No significant inhibition | 0.80
